Test results: patent US20220375548A1, “FRAGRANCE COMPOSITION TONALITY DETERMINATION METHOD, FRAGRANCE COMPOSITION DETERMINATION METHOD AND CORRESPONDING SYSTEMS” (FIRMENICH SA, priority 2019, published 2022)

Biological target: T1, OR7A17 (Homo sapiens, UniProt O14581)
T1 sequence (O14581 1-309): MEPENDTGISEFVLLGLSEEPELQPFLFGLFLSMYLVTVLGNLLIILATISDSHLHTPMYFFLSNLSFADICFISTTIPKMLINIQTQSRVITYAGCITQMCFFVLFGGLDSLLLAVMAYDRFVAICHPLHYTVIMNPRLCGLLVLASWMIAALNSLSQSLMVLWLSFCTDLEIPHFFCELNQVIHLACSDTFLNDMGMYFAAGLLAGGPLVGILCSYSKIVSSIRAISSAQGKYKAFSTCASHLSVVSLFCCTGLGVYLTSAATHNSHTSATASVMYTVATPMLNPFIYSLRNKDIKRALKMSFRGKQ
Assay: odorant receptor activation (Example 3 in U.S. 62/911,096)
Type: cell-based
Conditions: associated with blonde woody tonality
Source text: Non-limiting examples of an olfactory tonality include earthy, coconut, celery, hay etc. (see Example 1 in U.S. 62/911,096). For example, OR11A1 agonists all share a common earthy tonality even as they elicit an overall set of distinct tonalities (see Example 2 in U.S. 62/911,096). A volatile molecule may have greater than one tonality. For example, beta ionone has violet and blonde woody tonalities arising from the activation of OR5A1 and OR7A17, respectively (see Example 3 in U.S. 62/911,096).
The first relationship may be obtained by putting into contact a sample of volatile molecules with isolated ORs and by monitoring the activity of each said OR. The result of such an experiment may be stored inside a database cross referencing volatile molecule digital identifiers, representative of real volatile molecules, and the impact of said volatile molecule on the ORs monitored during the experiment.
Indicators for monitoring the activity of olfactory receptors include, for example, a fluorescent calcium indicator dye, a calcium indicator protein (e.g. GCaMP, a genetically encoded calcium indicator), a fluorescent cAMP indicator, a cell mobilization assay, a cellular dynamic mass redistribution assay, a label-free cell based assay, a cAMP response element (CRE) mediated reporter protein, a biochemical cAMP HTRF assay, a beta-arrestin assay, or an electrophysiological recording. […]

CC(=O)/C=C/C1=C(C)CCCC1(C)C [beta ionone]
activation of OR7A17: activation
